According to patent publication US11926579B1, “8-(4-methoxybenzylideneamino)naphthalene-1,3-disulfonic acid as an antioxidant compound” (KING FAISAL UNIVERSITY, priority 2023, dated 2024):

Test: DPPH radical scavenging antioxidant test
Type: biochemical
Conditions: for Inhibition (radical scavenging inhibition) / A (absorbance): DPPH 0.2 mL (0.75 mM), compound 3 μM in ethanol, 30 min incubation in the dark; for A (absorbance): read at 517 nm against a blank
Protocol: The antioxidant properties of the 8-(4-methoxybenzylideneamino)naphthalene-1,3-disulfonic acid were studied by adding 0.2 mL DPPH (0.75 mM)) to compound 8-(4-methoxybenzylideneamino) naphthalene-1,3 -di sulfonic acid (III) (3 μM) in ethanol. After 30 min of incubation in the dark, the absorbance was read against a blank at 517 nm. Ascorbic acid (vitamin C) was used as standard antioxidants (positive control). A blank sample was prepared by 0.2 ml of DPPH in 3 ml ethanol. A negative control sample was run using ethanol instead of the sample. The radical scavenging inhibition was calculated using the following equation: […]

Row | Structure (SMILES) | Inhibition (radical scavenging inhibition) (517 nm) [%] | A (absorbance) | antioxidant potential (DPPH), in words (DPPH in vitro test, 517 nm, vitamin C as positive control)
1 | COc1ccc(/C=N/c2cccc3cc(S(=O)(=O)O)cc(S(=O)(=O)O)c23)cc1 [Product III, 8-(4-methoxybenzylideneamino)naphthalene-1,3-disulfonic acid] | 50 | 0.22 | high potential as an antioxidant compared to vitamin C
2 | O=C1O[C@H]([C@@H](O)CO)C(O)=C1O [vit c, Ascorbic acid, reference compound] | 74 | 0.12 | 
